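Cells were grown in 96-well plates and exposed to each compound for 48 hours at five concentrations; endpoints were interpolated linearly between bracketing concentrations, or set to the highest concentration if not reached. Abbreviation: GI50, concentration required for 50% inhibition of growth.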 Active and inactive are the calls of the source. Cut-off read from the data, not from the text of the source: active = GI50 up to about 1.1 µM and inactive = higher.

Test systems include MDA-MB-435; KM12; A549; SF-295; UO-31; BT-549; SK-MEL-2; OVCAR-8; OVCAR-4; CCRF-CEM; SR; SF-268; HOP-92; NCI-H522; SK-OV-3; DU-145; OVCAR-3; NCI-H460; NCI-H226; HCT-116.
Assay in all cases: inhibition of tumour cell growth, NCI panel, 48 h

For `COc1ccc(/C=C2\OC(=O)C(Cl)=C2c2ccc(OC)cc2)cc1`, the GI50 in the test with MDA-MB-435 is > 100 µM (inactive); in the test with KM12, > 100 µM (inactive); in the test on A549, > 100 µM (inactive); in the test on SF-295 it was > 100 µM (inactive); in the test with UO-31, > 100 µM (inactive); in the test with BT-549, 99.5 µM (inactive). The GI50 is > 100 µM (inactive) in the test on SK-MEL-2; 85.7 µM (inactive) with OVCAR-8; 86.9 µM (inactive) in the test on OVCAR-4; > 100 µM (inactive) in the test on CCRF-CEM; > 100 µM (inactive) in the test with SR; 40.4 µM (inactive) with SF-268. The GI50 is 14 µM (inactive) with HOP-92; 66.2 µM (inactive) in the test with NCI-H522; > 100 µM (inactive) in the test with SK-OV-3; > 100 µM (inactive) with DU-145; > 100 µM (inactive) in the test with OVCAR-3; > 100 µM (inactive) in the test on NCI-H460.

Regarding `COc1ccc(Nc2nc3cc(C(F)(F)F)ccc3nc2C(=O)O)cc1`, the GI50 was 22.5 µM (inactive) in the test on MDA-MB-435; 24 µM (inactive) in the test with KM12; 13 µM (inactive) in the test on SF-295; 13.6 µM (inactive) in the test on UO-31; 14.4 µM (inactive) in the test on BT-549; 14.5 µM (inactive) with SK-MEL-2. The GI50 was 19.3 µM (inactive) in the test with OVCAR-8; 27.3 µM (inactive) in the test with OVCAR-4; 11.1 µM (inactive) in the test on SR; 17.6 µM (inactive) with SF-268; 15.6 µM (inactive) in the test with NCI-H226; 12.4 µM (inactive) with NCI-H522. For the same molecule, the GI50 is 20.4 µM (inactive) in the test with DU-145, 15.5 µM (inactive) in the test on HCT-116, 12.6 µM (inactive) with OVCAR-3 and 23.9 µM (inactive) in the test with NCI-H460.

Turning to `O=S(=O)(NC(c1ccccc1)(c1cc2ccccc2[nH]1)c1cc2ccccc2n1S(=O)(=O)c1ccccc1)c1ccccc1` (stereo not given), the GI50 in the test on MDA-MB-435 was > 100 µM (inactive); with KM12 it was > 100 µM (inactive); with A549, 48.3 µM (inactive); in the test on SF-295 it was > 100 µM (inactive); in the test on UO-31, > 100 µM (inactive); with BT-549, > 100 µM (inactive). Also, the GI50 is 28.9 µM (inactive) in the test on SK-MEL-2; > 100 µM (inactive) in the test on OVCAR-8; > 100 µM (inactive) in the test on OVCAR-4; > 100 µM (inactive) with CCRF-CEM; > 100 µM (inactive) in the test with SR; > 100 µM (inactive) in the test with SF-268. For the same molecule, the GI50 in the test on HOP-92 is > 100 µM (inactive); in the test on NCI-H226, > 100 µM (inactive); with SK-OV-3 it was 0.292 µM (active); in the test with DU-145, > 100 µM (inactive); in the test with HCT-116, > 100 µM (inactive); in the test with OVCAR-3 it was 91.8 µM (inactive). Also, the GI50 with NCI-H460 is > 100 µM (inactive).

With `c1ccc2c(OCC3CO3)ccc(OCC3CO3)c2c1` (stereo not given), the GI50 in the test on MDA-MB-435 is 2.44 µM (inactive); in the test with KM12 it was 4.14 µM (inactive); in the test with A549, 4.32 µM (inactive); with SF-295 it was 2.86 µM (inactive); in the test with UO-31, 1.61 µM (inactive); with BT-549 it was 6.49 µM (inactive). The GI50 with OVCAR-8 is 2.2 µM (inactive); with OVCAR-4 it was 7.05 µM (inactive); in the test on CCRF-CEM, 0.27 µM (active); in the test on SR it was 0.343 µM (active); in the test on SF-268, 0.571 µM (active); with HOP-92, 5.57 µM (inactive). The GI50 in the test on NCI-H226 was 12.1 µM (inactive); in the test on NCI-H522 it was 10.4 µM (inactive); in the test on SK-OV-3, 12.6 µM (inactive); in the test with DU-145 it was 2.36 µM (inactive); in the test on HCT-116, 1.36 µM (inactive); with OVCAR-3, 1.38 µM (inactive). Also, the GI50 with NCI-H460 was 3.42 µM (inactive).

Regarding `CC(=O)N(C)CCc1c[nH]c2ccccc12`, the GI50 in the test on MDA-MB-435, in the test with KM12, with A549, in the test with SF-295, with UO-31 and in the test on BT-549 was > 100 µM (inactive) throughout. Further, the GI50 in the test on SK-MEL-2, in the test on OVCAR-8, in the test on OVCAR-4, in the test with CCRF-CEM, with SR and in the test with SF-268 was > 100 µM (inactive) each time. Also, the GI50 with NCI-H226, in the test with NCI-H522, in the test on SK-OV-3, with DU-145, in the test on HCT-116 and in the test on OVCAR-3 was > 100 µM (inactive) each time. Besides, the GI50 with NCI-H460 is > 100 µM (inactive).

Take `O=C1C(NCCF)=C(Cl)C(=O)c2ncccc21`: the GI50 was 0.188 µM (active) with MDA-MB-435; 1.54 µM (inactive) with KM12; 1.73 µM (inactive) with A549; 1.49 µM (inactive) with SF-295; 1.49 µM (inactive) with BT-549; 0.179 µM (active) with SK-MEL-2. Moreover, the GI50 with OVCAR-8 was 0.8 µM (active); in the test with CCRF-CEM, 0.204 µM (active); with SR it was 2.36 µM (inactive); with SF-268, 1.5 µM (inactive); with HOP-92, 2.08 µM (inactive); in the test with NCI-H226 it was 1.71 µM (inactive). Moreover, the GI50 is 1.77 µM (inactive) with SK-OV-3; 1.11 µM (active) in the test on DU-145; 1.18 µM (inactive) with HCT-116; 2.48 µM (inactive) in the test with OVCAR-3; 0.429 µM (active) in the test on NCI-H460.

For the molecule `O=C(O)CSc1n[nH]c(=O)[nH]c1=O`, the GI50 in the test with MDA-MB-435, in the test on KM12, in the test on A549, in the test on SF-295, with UO-31 and in the test with BT-549 was > 100 µM (inactive) each time. For the same molecule, the GI50 in the test with SK-MEL-2, in the test with OVCAR-8, with OVCAR-4, in the test on CCRF-CEM, with SR and with SF-268 was > 100 µM (inactive) throughout. Besides, the GI50 was > 100 µM (inactive) in the test with NCI-H226; > 100 µM (inactive) with NCI-H522; > 100 µM (inactive) with SK-OV-3; > 100 µM (inactive) with DU-145; > 100 µM (inactive) in the test with HCT-116; 74.8 µM (inactive) in the test on OVCAR-3. In addition, the GI50 in the test on NCI-H460 was > 100 µM (inactive).

For the molecule `[O-]c1c2cc(-[n+]3c(-c4ccccc4)cc(-c4ccccc4)cc3-c3ccccc3)cc1CO[C@@H](c1ccccc1)[C@H](c1ccccc1)OCc1cccc(n1)CO[C@@H](c1ccccc1)[C@H](c1ccccc1)OC2`, the GI50 was 0.0501 µM (active) in the test on MDA-MB-435; 0.0383 µM (active) with KM12; 0.0536 µM (active) in the test with A549; 0.102 µM (active) in the test on SF-295; 0.625 µM (active) in the test with UO-31; 0.057 µM (active) with BT-549. In addition, the GI50 was 0.0569 µM (active) in the test on SK-MEL-2; 0.0488 µM (active) in the test on OVCAR-8; 0.09 µM (active) in the test on OVCAR-4; 0.0314 µM (active) with CCRF-CEM; 0.035 µM (active) in the test on SR; 0.0689 µM (active) in the test with SF-268. The GI50 is 0.0322 µM (active) in the test on HOP-92; 0.0353 µM (active) in the test with NCI-H522; 0.0775 µM (active) with SK-OV-3; 0.326 µM (active) with DU-145; 0.0286 µM (active) with HCT-116; 0.0299 µM (active) in the test with OVCAR-3. The GI50 in the test on NCI-H460 is 0.056 µM (active).

On to `CN(C)Cc1cc(C(=O)/C=C/c2ccc(/C=C/C(=O)c3cc(CN(C)C)c(O)c(CN(C)C)c3)cc2)cc(CN(C)C)c1O`, for which the GI50 with MDA-MB-435 is 24 µM (inactive); in the test on KM12, 17.7 µM (inactive); in the test on A549, 43 µM (inactive); in the test on SF-295, 29.2 µM (inactive); in the test with UO-31 it was 71.8 µM (inactive); with BT-549, 18.6 µM (inactive). Further, the GI50 is 20.2 µM (inactive) with SK-MEL-2; 49.3 µM (inactive) with OVCAR-8; 50.6 µM (inactive) in the test on OVCAR-4; 9.57 µM (inactive) in the test on CCRF-CEM; 22.8 µM (inactive) with SR; 27.5 µM (inactive) in the test with SF-268. Moreover, the GI50 is 24.2 µM (inactive) with HOP-92; 10.5 µM (inactive) with NCI-H522; 38.5 µM (inactive) with DU-145; 15.2 µM (inactive) with HCT-116; 32.1 µM (inactive) in the test on OVCAR-3.

As for `C[C@@H]1S[C@H](c2c(F)cccc2Cl)n2c1nc1ccccc12`, the GI50 is 12.6 µM (inactive) with MDA-MB-435; 5.53 µM (inactive) in the test with KM12; 17.1 µM (inactive) in the test on A549; 18.5 µM (inactive) in the test on SF-295; 11.9 µM (inactive) in the test on UO-31; 11.6 µM (inactive) in the test with BT-549. In addition, the GI50 in the test on SK-MEL-2 was 15.7 µM (inactive); with OVCAR-8, 19 µM (inactive); in the test with OVCAR-4, 18.5 µM (inactive); in the test with CCRF-CEM, 10.6 µM (inactive); in the test on SR, 7.23 µM (inactive); in the test on SF-268 it was 15.1 µM (inactive). In addition, the GI50 in the test with HOP-92 is > 10 µM (inactive); in the test with NCI-H226, 19.9 µM (inactive); in the test with SK-OV-3, 28.4 µM (inactive); in the test on DU-145, 27.2 µM (inactive); in the test with HCT-116, 4.49 µM (inactive); with OVCAR-3, 14.9 µM (inactive).

In the case of `CCN(CC)CCC(=O)c1ccc(Cl)c(Cl)c1`, the GI50 was 17.1 µM (inactive) in the test on MDA-MB-435; 34.6 µM (inactive) in the test with KM12; > 100 µM (inactive) with A549; > 100 µM (inactive) with SF-295; 41.3 µM (inactive) with UO-31; 21.2 µM (inactive) with BT-549. For the same molecule, the GI50 is 37.2 µM (inactive) in the test on OVCAR-8; 47.4 µM (inactive) in the test with OVCAR-4; 17.6 µM (inactive) with CCRF-CEM; 24.3 µM (inactive) in the test with SR; 20.8 µM (inactive) in the test on SF-268; 14.8 µM (inactive) with HOP-92. Besides, the GI50 with NCI-H226 was > 100 µM (inactive); with NCI-H522, 17.3 µM (inactive); with SK-OV-3, > 100 µM (inactive); with DU-145 it was 67.1 µM (inactive); with HCT-116 it was 27.5 µM (inactive); in the test on OVCAR-3, > 10 µM (inactive). For the same molecule, the GI50 in the test on NCI-H460 is > 100 µM (inactive).

These data come from ChEMBL document CHEMBL1201862, “PubChem BioAssay data set” (2004).
